Two compounds from patent publication US9763997B2, “Spray drying vancomycin” (Hospira, Inc., priority 2011, dated 2017) can be followed below.

Data set [1] can be described thus: Stability testing of spray dried batches at 25° C./60% RH, 30° C./60% RH, 40° C./75% RH (moisture by Karl Fischer, pH of reconstituted solution, reconstitution time, chromatographic purity). It counts as physicochemical. To be noted: Initial. The method, then:
(§1) Batches for stability testing were made using the spray dried formulation of vancomycin HCl (15% by weight), PEG-400 (3% by weight), mannitol (3% by weight) in WFI, with the API sourced from Abbott Laboratories (North Chicago, Ill.). Spray dried batches were stored at 25° C./60% Relative Humidity (RH), 30° C./60% RH, and 40° C./75% RH for three months. The stability data on moisture by Karl Fischer, pH (of the reconstituted solution), reconstitution time and chromatographic purity are presented in Table 7. The chromatographic purity was examined using the analytical HPLC method described in the current USP (United States Pharmacopeia) monograph for vancomycin. The test results for the API lot used to make the spray dried product were also listed for comparison.
The chromatographic purity of vancomycin B for all samples tested in this study were within USP specifications. All samples were stored at the accelerated conditions of 40° C./75% RH for 3 months and met USP criterion for vancomycin B by chromatographic purity (NLT 80% vancomycin B).

The nature of data set [2]: Chromatographic purity (vancomycin B and impurities), analytical HPLC method of the USP vancomycin monograph. The class given is physicochemical. The protocol:
as §1

Molecules are shown by their SMILES. Where a name gives a salt, the structure may show the parent alone.

Regarding `CN[C@H](CC(C)C)C(=O)N[C@H]1C(=O)N[C@@H](CC(N)=O)C(=O)N[C@H]2C(=O)N[C@H]3C(=O)N[C@H](C(=O)N[C@H](C(=O)O)c4cc(O)cc(O)c4-c4cc3ccc4O)[C@H](O)c3ccc(c(Cl)c3)Oc3cc2cc(c3O[C@@H]2O[C@H](CO)[C@@H](O)[C@H](O)[C@H]2O[C@H]2C[C@](C)(N)[C@H](O)[C@H](C)O2)Oc2ccc(cc2Cl)[C@H]1O` [API Lot 09097619, Vancomycin HCl], the “% Vancomycin B” value in data set [1] was determined as 91.9%.
`CN[C@H](CC(C)C)C(=O)N[C@H]1C(=O)N[C@@H](CC(N)=O)C(=O)N[C@H]2C(=O)N[C@H]3C(=O)N[C@H](C(=O)N[C@H](C(=O)O)c4cc(O)cc(O)c4-c4cc3ccc4O)[C@H](O)c3ccc(c(Cl)c3)Oc3cc2cc(c3O[C@@H]2O[C@H](CO)[C@@H](O)[C@H](O)[C@H]2O[C@H]2C[C@](C)(N)[C@H](O)[C@H](C)O2)Oc2ccc(cc2Cl)[C@H]1O` [API, Vancomycin Hydrochloride] came in with an Other in data set [2] (Table 8, other impurities) of 4.5%. In data set [2] (Table 8, tested for impurities), the N-Demethylvancomycin is given as 0.6% and the “Vancomycin B” value is reported as 94.9%.
